Patent US12528741B2, “Compositions for controlling microbially induced concrete corrosion” (The Regents of the University of Colorado, priority 2020, dated 2026)

How the values were obtained:
[1] = system: Acidithiobacillus spp. enrichments from sewer crown biofilm extract; experiment: metal inhibition in liquid media (pH monitoring and cell counts of sewer enrichments); type: cell-based; conditions: for cell density where pH dropped: average, aliquots when pH reached 2
Procedure: FIGS. 4A-4E are graphs showing pH of enrichments including different levels of copper, cobalt, and silver, alone and in combinations. FIG. 4A: Cu^2+, FIG. 4B: Ag+, FIG. 4C: Cu/Ag in combination at a ratio 2:1, FIG. 4D: Co^2+, and FIG. 4E: Cu/Co in combination at a ratio 1:1. Enrichments were inoculated with 150 μL of biofilm extract from a corroded site and dominated by Acidithiobacillus spp. (>95% relative abundance).
FIGS. 5A-5E are graphs showing cell densities (cells/mL) observed in sewer sourced enrichment cultures including copper, cobalt and silver, alone and in combinations. FIG. 5A: Cu^2+, FIG. 5B: Ag^+, FIG. 5C: Cu^2+/Ag^+ in combination at a ratio 2:1, FIG. 5D: Co^2+, and FIG. 5E: Cu^2+/Co^2+ in combination at a ratio 1:1. Light grey bars indicate enrichment cultures where pH dropped below 2. Dark grey bars indicate batches where pH approached neutrality. (n=3).
The pH was monitored and used as an indicator for significant acidophilic SOB activity (FIGS. 4A-4E). Thiobacillus media, without any metal addition, was used as control for comparative analysis. […] Above 40 mg Cu/L, no pH depression was observed; in contrast, pH increased and plateaued at values ranging between 6.5 and 6.7. […] Where only cobalt and silver were used, all challenges indicated some evidence of acidophilic activity.
Combinations of metals were also studied, including Cu/Ag and Cu/Co at mass ratios of 2:1 and 1:1, respectively. […] Thresholds for pH were also observed above 10 mg Cu/L and 10 mg Co/L, where copper and cobalt were combined. This challenge was monitored over 30 days, indicating significant acidophilic activity after […] of incubation.
All metal species used for the challenges were based on nitrate salts. Therefore, inhibition in the presence of counter ions, was also monitored. Challenges with increasing NO3 concentrations (up to 200 mg NO3/L) where prepared with NaNO3. All challenges indicated acidophilic activity and no lag effect was ever observed.
Aliquots for cell quantification and genetic analyses were extracted from each experiment when pH reached 2. If no pH drop was observed, aliquots were extracted after 30 days of incubation. FIGS. 5A-5E illustrate the observed cell densities for all tests.
The inhibitory effects and minimum inhibitory concentration of Cu and Co were further assessed on mixed acidophilic cultures in a liquid format. Silver (Ag) was also included based on its literature history as broad-spectrum inhibitory metal. As for the solid inhibition assays, the results presented in this study support the hypothesis that different metal may ions have markedly different inhibitory potential against Acidithiobacillus spp. extracted from sewer crowns. […] In thiosulfate-based media, stationary phase for Acidithiobacillus cultures was reached 8 days after inoculation. The relative duration of experiments highlighted metal-induced lag phases from stable inhibitory concentrations. MICs clearly emerged for Cu alone (50 mg Cu/L), and in mixtures of Cu/Ag (50 mg/L and 25 mg/L) and Cu/Co (15 mg/L and 15 mg/L). […] No inhibitory synergism was observed when mixing Cu and Ag at a 2:1 ratio, when compared to any individual metal alone. However, synergistic inhibition was observed when Cu and Co were present at a 1:1 ratio. […] The literature is tenuous on this topic.

[2] = system: sulfur oxidizing bacteria isolated from a corroding sewer (Acidithiobacillus spp.); experiment: modified Kirby-Bauer diffusion susceptibility test, metal-laden PAC on thiosulfate agar (solid media); type: cell-based, Acidithiobacillus thiooxidans; conditions: average
From the text: Bacterial cell abundance on the different areas of the plate surfaces were quantified using the epifluorescence microscopy methods known in the art. Areas selected for representative analysis were located in the center of each inhibition zone and the dispersed colonies area, and 10 mm into the bacterial monolayer.
Acidithiobacillus spp. response to metal mixtures is limited, however, the synergy of binary and ternary metal solutions have been described. […] The classic Kirby-Bauer antibiotic sensitivity test was adopted to assess diffusion inhibition of Acidithiobacillus thiooxidans growing on agar surfaces, in a longitudinal format.

Acidithiobacillus spp. = experiment: 16S rRNA gene analysis of metal-exposed enrichment cultures; type: cell-based; conditions: below 40 mg Cu/L
From the text: Cu and Cu/Ag mixtures were chosen to investigate the microbial communities under conditions where a pH threshold was observed. 16S rRNA gene analysis of 17 samples generated over 4 million sequences, classified in 611 operational taxonomic units (OTUs). After rarefaction analysis, the median Good's coverage was >99.9%, indicating enough sequencing data to confidently describe the diversity within these samples. Abundant OTUs consistently included 5 bacteria genera (FIGS. 6A-6B). Samples with metal concentration below the acidophilic inhibition threshold (40 mg Cu/L) indicated bacterial communities were dominated by Acidithiobacillus spp. […] When copper and silver were both present, Acidithiobacillus represented the dominant genus below the concentrations of 40 mg Cu/L and 20 mg Ag/L. The same genus represented less than 1% in batches above these concentrations. Following the same pattern as in the presence of Cu alone, the enrichments were also dominated by Burkholderia and Ralstonia spp. with significant presence of Sphingomonas spp., Leifsonia spp., Methylobacterium spp., and Microbacteriaceae spp. (when Cu ≥40 mg/L).

[Ag] [Ag, silver]
MIC, Ag ([1]; 30 days, Ag alone (highest tested) or in Cu/Ag): > 75 µg/mL
threshold Ag concentration for pH depression ([1]; Ag alone (highest tested) or Cu/Ag 2:1): ≥ 75 mg Ag/L
cell density where pH dropped [1]: 1.73×10^8 cells/mL

[Cd] [Cd, cadmium]
metal normalized inhibition length (Cd) [2]: 0.74 cm·(mg Cd/L)^−1

[Co+2] [Co, cobalt]
metal normalized inhibition length (Co) ([2]; Co alone or co-loaded with Cu on PAC): 1.23 cm·(mg Co/L)^−1
MIC, Co ([1]; 30 days, Co alone or in Cu/Co): > 50 µg/mL
threshold Co concentration for pH depression ([1]; Co alone (highest tested) or Cu/Co 1:1): ≥ 50 mg Co/L
cell density where pH dropped [1]: 3.81×10^8 cells/mL

[Cu+2] [Cu, copper]
metal normalized inhibition length (Cu) ([2]; agar, 10 days, pH below 3, Cu alone or co-loaded with Co on PAC): 2.36 cm·(mg Cu/L)^−1
Acidithiobacillus relative abundance below threshold (Acidithiobacillus spp.): > 99%
MIC, Cu ([1]; 30 days, Cu alone or in Cu/Ag 2:1, Cu/Co 1:1): 50 µg/mL
cell density where pH did not drop ([1]; aliquots after 30 days): 1.11×10^9 cells/mL
cell density where pH dropped [1]: 1.06×10^8 cells/mL
minimum inhibitory concentration (MIC) for acidophilic growth ([1]; no significant pH drop after 30 days, Cu alone): 50 mg Cu/L
endpoint pH of challenges at or below threshold ([1]; up to 40 mg Cu/L): < 2 pH

O=[N+]([O-])[O-].[Na+] [NaNO3, reference compound]
highest NO3 concentration still showing acidophilic activity, no lag ([1]; counter ion challenge): ≥ 200 mg NO3/L

[Ni] [Ni, nickel]
metal normalized inhibition length (Ni) [2]: 0.28 cm·(mg Ni/L)^−1

[Zn] [Zn, zinc]
metal normalized inhibition length (Zn) [2]: 0.14 cm·(mg Zn/L)^−1
